Test results reported in patent US8178683B2, “Antimicrobial ortho-fluorophenyl oxazolidinones for treatment of bacterial infections” (Micurx Pharmaceuticals, Inc., priority 2007, dated 2012).
Values after ≈ are worked out from the molar mass of the structure shown. Values joined by “and” are separate entries in the source; they are usually repeats but may differ in a detail not shown here. Equal entries are not always repeated.

Key:
[1] = tested on: methicillin-resistant Staphylococcus aureus (MRSA); assay: Minimum inhibitory concentration (MIC) against MRSA clinical isolate; assay type: cell-based; settings: clinical isolate of MRSA from the Massachusetts General Hospital
From the text: Compounds of this invention can have useful activity against a variety of pathogenic microorganisms. The in vitro activity of compounds of this invention can be assessed by standard testing procedures such as the determination of minimum inhibitory concentration (MIC) by agar dilution as described in “Approved Standard. Methods for Dilution Antimicrobial Susceptibility Tests for Bacteria That Grow Aerobically”, 3rd. ed., published 1993 by the National Committee for Clinical Laboratory Standards, Villanova, Pa., USA. Minimum inhibitory concentration (MIC) refers to the lowest concentration of drug (μg/mL) that inhibits visible growth of the organism. Lower MIC values indicate a higher antibacterial activity. Typically, compounds of present invention have useful potency against Gram-positive or Gram-negative pathogens with MIC values of ≦16 μg/mL. The useful activity of compounds of the present invention against a clinical isolate of methicillin-resistant Staphylococcus aureus (MRSA; from the Massachusetts General Hospital, USA) is illustrated by the MIC data of Table 1.

[2] = tested on: human CD34+ bone marrow cells; assay: Myelosuppressive potential: bone marrow CD34+ cell growth inhibition, luminescence assay; assay type: cell-based; settings: 9-10 days at 37° C., Linezolid value of side-by-side test in parenthesis; for IC50: Homo sapiens, CD34+ cell
Description: Myelosuppressive potential (hematopoietic or bone marrow toxicity) was evaluated using human CD34^+ bone marrow cells, generally following methods described by Leach in International Patent Publication No. WO 2006/097828. Thus, an oxazolidinone compound was incubated with fresh human bone marrow cells for 9-10 days at 37° C. in 5% CO2 atmosphere. At end of the incubation period, the bone marrow toxicity was accessed by measuring inhibition (IC50, μg/mL) of CD34^+ cell growth using a luminescence assay. Lower IC50 value indicates a higher myelosuppression potential with enhanced probability of undesired adverse effects in vivo, while a higher IC50 value indicates reduced bone marrow toxicity. The CD34^+ inhibition data for representative compounds of this invention are illustrated in the Table 2 below.

[3] = target: T1, Human monoamine oxidase (MOA) A type enzyme (Homo sapiens, UniProt P21397); assay: MAO-Glo monoamine oxidase A enzyme inhibition assay; assay type: biochemical; settings: human MAO A enzyme (BD Gentest), MAO-Glo kit; Linezolid value of side-by-side test in parenthesis
T1 construct: purchased BD Gentest
T1 sequence (P21397 1-527): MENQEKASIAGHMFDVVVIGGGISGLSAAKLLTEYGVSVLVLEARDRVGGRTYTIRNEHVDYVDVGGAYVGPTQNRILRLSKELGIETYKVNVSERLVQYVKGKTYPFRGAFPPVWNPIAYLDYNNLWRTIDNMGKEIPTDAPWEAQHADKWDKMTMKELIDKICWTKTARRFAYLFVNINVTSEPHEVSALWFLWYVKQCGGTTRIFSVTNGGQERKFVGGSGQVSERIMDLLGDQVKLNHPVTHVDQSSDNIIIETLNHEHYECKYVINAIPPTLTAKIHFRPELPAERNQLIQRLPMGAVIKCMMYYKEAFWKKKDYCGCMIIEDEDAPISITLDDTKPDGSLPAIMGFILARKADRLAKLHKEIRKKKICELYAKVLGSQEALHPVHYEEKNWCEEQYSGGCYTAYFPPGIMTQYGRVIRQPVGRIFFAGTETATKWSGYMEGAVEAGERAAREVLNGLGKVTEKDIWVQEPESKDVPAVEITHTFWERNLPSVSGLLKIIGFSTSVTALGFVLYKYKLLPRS
Description: Human monoamine oxidase (MOA) A type enzyme inhibition activity for select compounds was measured using a commercial MAO assay kit MAO-Glo™ from Promega Co. (USA). The assay was performed as described in the company's technical bulletin “MAO-Glo™ Assay”. The protocol involves an incubation of the MAO A enzyme (BD Gentest™) with a luminogenic MAO substrate to produce an enzymatic product which is converted to luciferin by a coupled reaction. The released luciferin undergoes further transformation to generate light that is detected and measured. The amount of the light is directly proportional to the activity of MAO. Percent inhibition at several concentrations is established relative to the uninhibited control rate, and the IC50 (μg/mL) values are calculated. […] The MAO inhibition data for select compound of this invention are illustrated in the Table 2 below.

| Structure (SMILES) | MIC [1] | also measured |
| --- | --- | --- |
| O=C1C=CN(c2ccc(N3C[C@H](Cn4ccnn4)OC3=O)c(F)c2F)CC1 [Example 11] | 1 µg/mL (≈ 2.66 µM) |  |
| CC(=O)NC[C@H]1CN(c2cc(F)c(N3C=CC(=O)CC3)c(F)c2F)C(=O)O1 [Example 2] | 2 µg/mL (≈ 5.22 µM) | IC50 [2]: 13.2 µg/mL (≈ 34.4 µM); IC50 [3]: 148 µM |
| CCC(=O)NC[C@H]1CN(c2cc(F)c(N3C=CC(=O)CC3)c(F)c2F)C(=O)O1 [Example 7] | 2 µg/mL (≈ 5.03 µM) |  |
| O=C1C=CN(c2ccc(N3C[C@H](Cn4ccnn4)OC3=O)cc2F)CC1 [Example 25, reference compound] |  | IC50 [2]: 2.6 µg/mL (≈ 7.28 µM); IC50 [3]: 5.04 µM |
| O=C1C=CN(c2c(F)cc(N3C[C@H](Cn4ccnn4)OC3=O)c(F)c2F)CC1 [Example 3] | 1 µg/mL (≈ 2.54 µM) |  |
| Cc1cn(C[C@H]2CN(c3ccc(N4C=CC(=O)CC4)c(F)c3F)C(=O)O2)nn1 [Example 12] | 4 µg/mL (≈ 10.3 µM) |  |
| COC(=O)NC[C@H]1CN(c2ccc(N3C=CC(=O)CC3)c(F)c2F)C(=O)O1 [Example 13] | 1 µg/mL (≈ 2.62 µM) | IC50 [2]: 6.3 µg/mL (≈ 16.5 µM); IC50 [3]: 44.8 µM |
| Cc1cn(C[C@H]2CN(c3cc(F)c(N4C=CC(=O)CC4)c(F)c3F)C(=O)O2)nn1 [Example 8] | 4 µg/mL (≈ 9.82 µM) |  |
| CC(=O)NC[C@H]1CN(c2ccc(N3C=CC(=O)CC3)c(F)c2F)C(=O)O1 [Example 9] | 1 µg/mL (≈ 2.74 µM) |  |
| O=C1C=CN(c2cc(F)c(N3C[C@H](Cn4ccnn4)OC3=O)cc2F)CC1 [Example 18] | 4 µg/mL (≈ 10.7 µM) |  |
| O=C1C=CN(c2ccc(N3C[C@H](CO)OC3=O)c(F)c2F)CC1 [Example 10] | 2 µg/mL (≈ 6.17 µM) |  |
| Cc1cc(NC[C@H]2CN(c3cc(F)c(N4C=CC(=O)CC4)c(F)c3F)C(=O)O2)no1 [Example 6] | 4 µg/mL (≈ 9.47 µM) |  |
| O=C1C=CN(c2ccc(N3C[C@H](COc4ccon4)OC3=O)c(F)c2F)CC1 [Example 16] | 4 µg/mL (≈ 10.2 µM) |  |
| O=C1C=CN(c2c(F)cc(N3C[C@H](CO)OC3=O)c(F)c2F)CC1 [Example 1] | 4 µg/mL (≈ 11.7 µM) |  |
| CC(=O)NC[C@H]1CN(c2ccc(N3CCOCC3)c(F)c2)C(=O)O1 [Linezolid, linezolid, reference compound] | 2 µg/mL (≈ 5.93 µM) | CD34 IC50 [2]: Range 7.9-14.0 μg/mL; CD34 IC50 ([2]; listed as Lin.): 14.0 µg/mL and 8.1 µg/mL; IC50 [2]: 7.9 µg/mL (≈ 23.4 µM); IC50 [3]: 11.3 µM |
| CC(=O)NC[C@H]1CN(c2cc(F)c(N3C=CC(=O)CC3)cc2F)C(=O)O1 [Example 17] | 4 µg/mL (≈ 10.9 µM) |  |
| Cn1nnnc1-c1ccc(-c2ccc(N3C[C@H](CO)OC3=O)c(F)c2F)cn1 [Example 22] | 1 µg/mL (≈ 2.58 µM) |  |
| O=C1C=CN(c2c(F)cc(N3C[C@H](Cn4cc(F)nn4)OC3=O)c(F)c2F)CC1 [Example 20] | 4 µg/mL (≈ 9.72 µM) |  |
| O=C1C=CN(c2c(F)cc(N3C[C@H](CNc4ccon4)OC3=O)c(F)c2F)CC1 [Example 5] | 1 µg/mL (≈ 2.45 µM) | IC50 [2]: 15.7 µg/mL (≈ 38.4 µM); IC50 [3]: 30.1 µM |
| N#Cc1cn(C[C@H]2CN(c3cc(F)c(N4C=CC(=O)CC4)c(F)c3F)C(=O)O2)nn1 [Example 19] | 4 µg/mL (≈ 9.56 µM) |  |
| COC(=O)NC[C@H]1CN(c2cc(F)c(N3C=CC(=O)CC3)c(F)c2F)C(=O)O1 [Example 4] | 2 µg/mL (≈ 5.01 µM) | IC50 [2]: 17.7 µg/mL (≈ 44.3 µM); IC50 [3]: 54.3 µM |
| CCC(=O)NC[C@H]1CN(c2ccc(N3C=CC(=O)CC3)c(F)c2F)C(=O)O1 [Example 15] | 2 µg/mL (≈ 5.27 µM) |  |
| O=C1C=CN(c2ccc(N3C[C@H](CNc4ccon4)OC3=O)c(F)c2F)CC1 [Example 14] | 0.25 µg/mL (≈ 0.64 µM) |  |
| Cn1nnc(-c2ccc(-c3cc(F)c(N4C[C@H](Cn5ccnn5)OC4=O)cc3F)cn2)n1 [Example 21] | 2 µg/mL (≈ 4.55 µM) |  |
| COC(=O)NC[C@H]1CN(c2ccc(-c3ccc(-c4nnnn4C)nc3)c(F)c2F)C(=O)O1 [Example 23] | 1 µg/mL (≈ 2.25 µM) |  |
| CC(=O)NC[C@H]1CN(c2cc(F)c(N3CCOCC3)c(F)c2F)C(=O)O1 [Example 26, reference compound] | 2 µg/mL (≈ 5.36 µM) |  |
